Measured values as given in patent US8529877B2, “Benzylidene compounds comprising phosphono-groups” (BASF SE, priority 2008, dated 2013).

Experiments:
Format in all cases: physicochemical
[1] = Photostability of Butyl Methoxydibenzoylmethane in O/W sunscreen film, solar simulator, HPLC; details: for Residual Butyl Methoxydibenzoylmethane: solar simulator 2 hours (5400 kJ/m2)
Experimental: The photostability of Butyl Methoxydibenzoylmethane is determined by spreading the emulsion as a 20 μm thick film on a quartz plate. The film is irradiated using a solar simulator for 2 hours (5400 kJ/m2). After irradiation, the quartz plate is plunged into 5 ml of tetrahydrofurane. The amount of UV-A filter Butyl Methoxydibenzoylmethane is then determined using high performance liquid chromatography. The residual Butyl Methoxydibenzoylmethane is determined to be 42%.
The photostability of Butyl Methoxydibenzoylmethane in the comparative formulation B is determined as described above for formulation A. The residual Butyl Methoxydibenzoylmethane is determined to be 4%.

[2] = UV shielding properties: UV spectra in ethanol (absorption maximum, A1%1cm); design: Absorption maximum λmax: unit not given here; details: for Absorption maximum λmax / A^1%1 cm: UV spectra in ethanol; for A^1%1 cm: at the absorption maximum; for Absorption bands (coverage of UV range): UV spectrum in ethanol
Excerpt: The UV shielding properties of the bisbiphenyl triazine derivatives were investigated by measuring their UV spectra in ethanol. In the following table the investigated absorption maxima (λmax) together with the corresponding A^1%1cm values are listed.

[3] = Photostability of Ethylhexyl Methoxycinnemate in O/W sunscreen film, solar simulator, HPLC; details: for Residual Ethylhexyl Methoxycinnemate: solar simulator 4 hours (10800 kJ/m2)
Experimental: The photostability of the UV-B filter Ethylhexyl Methoxycinnemate is determined by spreading the emulsion as a 20 μm thick film on a quartz plate. The film is irradiated using a solar simulator for 4 hours (10800 kJ/m2). After irradiation, the quartz plate is plunged into 5 ml of tetrahydrofurane. The amount of UV-B filter Ethylhexyl Methoxycinnemate is then determined using high performance liquid chromatography. The residual Ethylhexyl Methoxycinnemate is determined to be 59%.
The photostability of Ethylhexyl Methoxycinnemate in the comparative formulation B is determined as described above for formulation A. The residual Ethylhexyl Methoxycinnemate is determined to be 38%.

[4] = Photostability of the UV filter in highly diluted ethanol solution under irradiation, analysed by UV spectroscopy; details: for Half time: first order kinetic fit, half-life under COLIPA standard sun irradiation
Experimental: The method used for assessment of photostability is based on the irradiation of a highly diluted solution of the UV-filter. The analysis after certain doses of irradiation was performed by UV-spectroscopy. The concentration of the UV-absorber in ethanol is adjusted to values between 1·10^−5 and 1·10^−6 mol/l, such that the absorbance of the solution in cuvette of 1 cm optical pathlength is equal or smaller than 0.2. The mutual protection of filter molecules can be excluded under such conditions.
Prior to irradiation of a sample the UVB-intensity at the sample position is measured with a UV-radiometer (RM-12, Dr. Gröbel Electronic GmbH). This radiometer was calibrated by comparison with a measurement of the spectral output of the metal halide lamp (including light guide and cut-off filter) using a wavelength-resolved radiometer (Gamma C11). Therefore the relationship of the reading of the RM-12 radiometer and the corresponding spectral output of the lamp is known, and one is able to determine the wavelength-resolved intensities by measuring the UVB-intensity. By changing the distance between the end of the light guide and the cuvette, the UVB-intensity can be varied in the range of 100 μW/cm^2 and 4500 μW/cm^2.
For sample irradiation the highest possible intensity was used (4.5 mW/cm^2 UVB-intensity measured with the Macam 103 radiometer). The irradiation time was varied from 0 to 180 min. The dose the sample has received after 180 minutes corresponds to 60 MED. During irradiation the sample was stirred. After certain intervals of irradiation, the samples were analysed in a UV-spectrometer (Perkin Elmer, Lambda 16).
From the absorbance values at each dose of irradiation the concentration may be calculated using Lambert-Beer's law. In order to get the half-life of the substance, a first order kinetic model was fitted to the experimental data. Since the UV-spectrum of the lamp and the UV-spectrum of the COLIPA standard sun are known, one can calculate the respective half-life of the UV-absorber under conditions of COLIPA standard sun irradiation [Bernd Herzog, Stefan Müller, Myriam Sohn, Uli Osterwalder, “New Insight and Prediction of Photostablity of Sunscreens”, SÖFW Journal 133, 26-36 (2007)].
The investigated half-time values and recovery after irradiation (10 MED) of some specific benzotropolones are listed in the table below: […]

[5] = O/W Sunscreen Formulation A (with P-01), 20 μm film on quartz plate
[6] = comparative formulation B (without P-01), 20 μm film
[7] = formulation A versus comparative formulation B

| Structure (SMILES) | Absorption maximum λmax [2] | A^1%1 cm [2] | Absorption bands (coverage of UV range) [2] | Half time [4] | further results |
| --- | --- | --- | --- | --- | --- |
| COc1ccc(C(=O)CC(=O)c2ccc(C(C)(C)C)cc2)cc1 [Butyl Methoxydibenzoylmethane, 1-[4-(1,1-dimethylethyl)phenyl]-3-(4-methoxyphenyl)propane-1,3-dione] | – | – | – | – | Residual Butyl Methoxydibenzoylmethane [1, 5]: 42%; Residual Butyl Methoxydibenzoylmethane [1, 6]: 4% |
| CCOC(=O)/C(=C\c1ccc(OC)cc1)P(=O)(OCC)OCC [Compound P-1] | 303 | 519 | broad absorption bands | 14 311 h | Stabilization factor of Butyl Methoxydibenzoylmethane [1, 7]: at least 10; Stabilization factor of Ethylhexyl Methoxycinnemate [3, 7]: 1.55; Photodegradation after irradiation of 10 MED [4]: no photodegradation |
| CCOC(=O)/C(=C\c1ccc(/C=C(\C(=O)OCC)P(=O)(OCC)OCC)cc1)P(=O)(OCC)OCC [Compound P-2] | 302 | 500 | broad absorption bands | 172 h | – |
| CCOC(=O)/C(=C\c1ccc(N(CC)CC)cc1)P(=O)(OCC)OCC [Compound P-3] | 366 | 624 | broad absorption bands | 320 h | – |
| CCOC(=O)/C(=C\c1cc(OC)c(O)c(OC)c1)P(=O)(OCC)OCC [Compound P-4] | 322 | 390 | broad absorption bands | 100 h | – |
| CCOP(=O)(OCC)C(=Cc1ccc(-c2ccccc2)cc1)P(=O)(OCC)OCC [Compound P-5] | 299 | 427 | broad absorption bands | 7 h | – |
| CCOP(=O)(OCC)C(=Cc1ccc(OC)cc1)P(=O)(OCC)OCC [Compound P-6] | 313 | 575 | broad absorption bands | 11285 h | – |
| CCOC(=O)/C(=C\c1ccc(-c2ccccc2)cc1)P(=O)(OCC)OCC [Compound P-7] | 302 | 650 | broad absorption bands | 466.6 h | Photodegradation after irradiation of 10 MED [4]: no photodegradation |
| CCOC(=O)/C(=C\c1ccc(NC(C)=O)cc1)P(=O)(OCC)OCC [Compound P-17] | 308 | 604 | – | 947.6 h | – |
| CCOC(=O)/C(=C\c1ccc(-c2ccc(/C=C(\C(=O)OCC)P(=O)(OCC)OCC)cc2)cc1)P(=O)(OCC)OCC [Compound P-19] | 324 | 733 | – | 220.6 h | – |
| CCOC(=O)C(=C1c2ccccc2-c2ccccc21)P(=O)(OCC)OCC [Compound P-20] | 314 | 371 | – | 449.2 h | – |
| CCOC(=O)/C(=C\c1ccc(O)c(OC)c1)P(=O)(OCC)OCC [Compound P-21] | 319 | 429 | – | – | – |
| CCOC(=O)/C(=C\c1cc(OC)c(OC)c(OC)c1)P(=O)(OCC)OCC [Compound P-22] | 299 | 357 | – | 262.8 h | – |
| CCCCC(CC)COC(=O)C=Cc1ccc(OC)cc1 (centres unmarked) [Ethylhexyl Methoxycinnemate, 2-ethylhexyl 4-methoxycinnamate] | – | – | – | – | Residual Ethylhexyl Methoxycinnemate [3, 5]: 59%; Residual Ethylhexyl Methoxycinnemate [3, 6]: 38% |
